Experimental findings from ChEMBL document CHEMBL1140044, “Structure-activity relationship study on anti-HIV 6-desfluoroquinolones” (J Med Chem, 2008) are described below.

The subject of data set [1] is Human immunodeficiency virus 1. The data set is described as follows: Antiviral activity against HIV1 3B in MT4 cells assessed as virus p24 antigen production administered at 16 hrs post infection by ELISA. Format: functional, organism-based. In general terms: ELISA stands for enzyme-linked immunosorbent assay.
The test system of data set [2] is Human immunodeficiency virus 1. Briefly: Antiviral activity against HIV1 3B in MT4 cells assessed as virus p24 antigen production administered at 5 hrs post infection by ELISA. In kind it is functional, organism-based.
The subject of data set [3] is Human immunodeficiency virus 2. The data set is described as follows: Antiviral activity against HIV2 ROD in MT4 cells assessed as inhibition of virus-induced cytopathogenicity by MTT assay. In kind it is functional, organism-based. The following applies: Human immunodeficiency virus 2, ROD. For orientation: Protection from cytopathic effect is a common read-out in antiviral testing.

Data set [4] is described as follows: Selectivity index, ratio of CC50 for human MT4 cells to EC50 for HIV1 3B. In kind it is toxicity, cell-based. The following applies: read-out: Ratio CC50/EC50.
Data set [5] relates to Human immunodeficiency virus 2. Briefly: Antiviral activity against HIV2 ROD in CEM cells assessed as inhibition of virus-induced syncytium formation after 4 days by microscopy. In kind it is functional, organism-based. The note with it: Human immunodeficiency virus 2, ROD, CCRF-CEM, 96 h.
Data set [6] concerns Human immunodeficiency virus 1. Briefly: Antiviral activity against HIV1 3B in MT4 cells assessed as inhibition of virus-induced cytopathogenicity by MTT assay. Format: functional, organism-based. The following applies: Human immunodeficiency virus 1, 3B.
Data set [7] concerns Human immunodeficiency virus 1. The data set is described as follows: Antiviral activity against HIV1 3B in CEM cells assessed as inhibition of virus-induced syncytium formation after 4 days by microscopy. Format: functional, organism-based. The following applies: Human immunodeficiency virus 1, 3B, CCRF-CEM, 96 h.
Data set [8] in a line: Selectivity index, ratio of CC50 for human CEM cells to EC50 for HIV2 ROD. In kind it is toxicity, cell-based, CCRF-CEM. The note with it: read-out: Ratio CC50/EC50.
Data set [9] can be described thus: Cytotoxicity against mock-infected human PBMC cells by trypan blue exclusion assay. Format: cell-based.
Data set [10] in a line: Selectivity index, ratio of CC50 for human PBMC cells to EC50 for HIV1 3B. The following applies: read-out: Ratio CC50/EC50. In kind it is toxicity, cell-based.
Data set [11] concerns Human immunodeficiency virus 1. The data set is described as follows: Antiviral activity against HIV1 3B in PBMC assessed as inhibition of p24 production after 7 days by ELISA. In kind it is functional, organism-based. The following applies: Human immunodeficiency virus 1, 3B, 168 h.
Data set [12] can be described thus: Selectivity index, ratio of CC50 for human MT4 cells to EC50 for HIV2 ROD. In kind it is toxicity, cell-based. The note with it: read-out: Ratio CC50/EC50.
For data set [13], the system named is Human immunodeficiency virus 1. Briefly: Inhibition of HIV1 3B production in chronically infected HUT78 cells assessed as virus p24 antigen production after 44 hrs by ELISA. Format: functional, organism-based.
The nature of data set [14]: Cytotoxicity against mock-infected human MT4 cells after 5 days by MTT assay. Format: cell-based.
A short description of data set [15]: Selectivity index, ratio of CC50 for human CEM cells to EC50 for HIV1 3B. Format: toxicity, cell-based, CCRF-CEM. The following applies: read-out: Ratio CC50/EC50.
Data set [16] is described as follows: Cytotoxicity against mock-infected human CEM cells by Coulter counter. In kind it is cell-based. The note with it: mock-infected CEM (CCRF-CEM) cells.
Data set [17] concerns Human immunodeficiency virus 1. Briefly: Antiviral activity against HIV1 3B in MT4 cells assessed as virus p24 antigen production administered at 10 hrs post infection by ELISA. In kind it is functional, organism-based.
Data set [18] concerns the target T1, Protein Tat (Human immunodeficiency virus type 1 group M subtype B (isolate HXB2)(HIV-1)) (UniProt P04608).
T1 sequence (whole entry): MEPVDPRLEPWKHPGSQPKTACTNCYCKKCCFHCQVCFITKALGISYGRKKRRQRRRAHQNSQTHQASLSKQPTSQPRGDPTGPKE
Briefly: Inhibition of HIV1 Tat-mediated LTR promoter transactivation in Tat/GFP plasmid expressed in Jurkat cells assessed as GFP gene expression by FACS analysis. In kind it is cell-based. The following applies: Human immunodeficiency virus 1. (In general: A flow cytometer gives signals particle by particle.)

In brackets after ≈: the same amount, converted by molar mass. Activity calls are given as the source filed them. No cut-off for these calls is given here.

`Cc1cn([C@H]2C[C@H](N=[N+]=[N-])[C@@H](CO)O2)c(=O)[nH]c1=O`: the result in data set [1] and in [2] was Active.

In the case of `Cn1cc(C(=O)O)c(=O)c2ccc(N3CCN(c4cccc(C(F)(F)F)c4)CC3)cc21`, the EC50 in data set [3] was found to be 0.13 µg/mL (≈ 0.301 µM); in [5], 0.28 µg/mL (≈ 0.649 µM); in data set [6] it was 0.07 µg/mL (≈ 0.162 µM); in [7], 0.13 µg/mL (≈ 0.301 µM); in data set [11], 0.28 µg/mL (≈ 0.649 µM). For the same compound, the selectivity ratio was determined as 38 in [4]; 4 in data set [8]; 2 in data set [10]; 21 in data set [12]; 9 in [15]. The CC50 is 0.69 µg/mL (≈ 1.6 µM) in data set [9] and 1.2 µg/mL (≈ 2.78 µM) in data set [16]. In addition, the result in data set [13] was Active. Also, in data set [14], it took 2.61 µg/mL (≈ 6.05 µM) to reach half-maximal cytotoxicity (CC50 at 120 h).

For `CC(C)c1nc(CN(C)C(=O)N[C@H](C(=O)N[C@@H](Cc2ccccc2)C[C@H](O)[C@H](Cc2ccccc2)NC(=O)OCc2cncs2)C(C)C)cs1`, the outcome in data set [1] and in data set [2] was Active.

For the compound `Cn1cc(C(=O)O)c(=O)c2ccc(N3CCN(c4nc5ccccc5s4)CC3)cc21`, the EC50 in data set [3] was 0.04 µg/mL (≈ 0.0951 µM); in [5], 0.065 µg/mL (≈ 0.155 µM); in data set [6], 0.03 µg/mL (≈ 0.0713 µM); in [7] it was 0.024 µg/mL (≈ 0.0571 µM); in data set [11], 0.15 µg/mL (≈ 0.357 µM). Also, the selectivity ratio in data set [4] was determined as 14.7; in data set [8], 104; in data set [10], 4; in [12], 5.5; in data set [15], 281. Further, the result in data set [17] and in [13] was Active. For the same compound, the values for the CC50 in data set [9] and in data set [16] were 0.65 µg/mL (≈ 1.55 µM) and 6.74 µg/mL (≈ 16 µM), respectively. In addition, the Activity result in data set [18] was “Dose-dependent effect”. The CC50 at 120 h in data set [14] is 0.44 µg/mL (≈ 1.05 µM).

`Cn1cc(C(=O)O)c(=O)c2ccc(N3CCN(c4nc5ccccc5o4)CC3)cc21`: the EC50 stood at 11.9 µg/mL (≈ 29.3 µM) in [3], 14 µg/mL (≈ 34.6 µM) in data set [5], 5.76 µg/mL (≈ 14.2 µM) in data set [6] and 3.35 µg/mL (≈ 8.28 µM) in [7]. Moreover, the selectivity ratio is > 22 in data set [4], > 7 in data set [8], > 11 in data set [12] and > 30 in data set [15]. The Activity result in [18] is “Dose-dependent effect”. In addition, the cytotoxic concentration (CC50) at 120 h in data set [14] was > 125 µg/mL. Further, the CC50 in [16] was > 100 µg/mL.

Usually EC50 stands for the concentration giving half of the maximal effect. What is called CC50 is the concentration at which the toxic effect on the cells reaches its halfway point. Low readings indicate harm at low concentration, high ones better tolerance by the cells.
